Here are results for two compounds from patent US20250282746A1, “HALOGEN-SUBSTITUTED ISOINDOLINE COMPOUND AND USE THEREOF” (CHENGDU FENDI PHARMACEUTICAL CO., LTD., priority 2022, published 2025).

SMILES strings stand for the structures. pIC50: −log10 of the molar value. Where two headings read alike, the source gives them in different places.

What all share (type): cell-based
Experiment [1] has as its system MV-4-11 cells. Description: Antiproliferative activity against MV-4-11 cells (CellTiter-Glo, 72 h). The note with it: Homo sapiens. The gist of the method: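 MV-4-11 cells in RPMI + 10% FBS plated at 5,000 cells/well and pre-incubated 24 h at 37 °C, 5% CO2. Compounds were then added (final DMSO 0.2%) and cells incubated 72 h. Viability was read by CellTiter-Glo luminescence after 30 min equilibration at room temperature.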
Background: Cellular ATP, detected with luciferase, serves as a proxy for viable cell number.

In experiment [2] the target is T1, GSPT1 protein (Homo sapiens, UniProt P15170).
T1 construct: The whole cell lysate was prepared using a RIPA lysis buffer; endogenous in cells; host or cells: NB-4 cells
T1 sequence (P15170 whole entry): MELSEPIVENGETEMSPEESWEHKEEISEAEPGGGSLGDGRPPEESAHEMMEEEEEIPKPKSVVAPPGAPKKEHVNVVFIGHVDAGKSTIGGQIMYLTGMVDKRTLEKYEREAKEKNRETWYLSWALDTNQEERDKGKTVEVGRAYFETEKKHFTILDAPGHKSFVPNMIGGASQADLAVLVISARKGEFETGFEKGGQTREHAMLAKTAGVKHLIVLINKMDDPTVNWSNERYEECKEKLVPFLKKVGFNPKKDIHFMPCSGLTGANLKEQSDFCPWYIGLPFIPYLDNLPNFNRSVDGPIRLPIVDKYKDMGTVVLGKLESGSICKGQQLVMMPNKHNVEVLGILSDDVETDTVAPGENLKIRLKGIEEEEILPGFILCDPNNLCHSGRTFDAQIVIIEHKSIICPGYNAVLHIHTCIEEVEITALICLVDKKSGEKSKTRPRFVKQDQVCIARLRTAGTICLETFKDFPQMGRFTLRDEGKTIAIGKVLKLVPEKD
Description: Degradation of GSPT1 protein in NB-4 cells (Western blot). The note with it: for inhibition at 1 µM: read-out: GSPT1 degradation. The method in brief: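 NB-4 cells treated with compounds at 1 μM for 6 h at 37 °C, 5% CO2, with DMSO control. RIPA whole-cell lysates, BCA-normalized, were run on 4-20% SDS-PAGE and immunoblotted for GSPT1 protein.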

The target of experiment [3] is T2, CK1α (Homo sapiens, UniProt P48729).
T2 construct: The whole cell lysate was prepared using a RIPA lysis buffer; endogenous in cells; host or cells: HL-60 cells
T2 sequence (P48729 whole entry): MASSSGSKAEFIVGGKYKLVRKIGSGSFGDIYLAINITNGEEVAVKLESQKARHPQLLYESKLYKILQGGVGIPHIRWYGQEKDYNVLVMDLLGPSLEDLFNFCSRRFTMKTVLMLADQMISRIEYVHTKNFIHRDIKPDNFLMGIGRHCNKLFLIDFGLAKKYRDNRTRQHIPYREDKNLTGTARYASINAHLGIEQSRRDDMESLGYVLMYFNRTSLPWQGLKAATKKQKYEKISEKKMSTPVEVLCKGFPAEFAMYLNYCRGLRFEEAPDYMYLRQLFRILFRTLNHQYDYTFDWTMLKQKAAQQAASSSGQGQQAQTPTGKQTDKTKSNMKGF
Description: Degradation of CK1α protein in HL-60 cells (Western blot). The note with it: 4 h. How it is done: […] of DMSO and the compounds were added, and the mixture was incubated in an incubator at 5% CO2 and 37° C. for 4 h. The cells were centrifuged, and the culture medium was discarded. PBS was added for washing and then discarded. The whole cell lysate was prepared using a RIPA lysis buffer containing a protease inhibitor cocktail and a phosphatase inhibitor, and incubated on ice for 30 min. The mixture was centrifuged, and the cell debris was discarded. The whole cell lysate supernatant was collected and transferred to a fresh EP tube. Samples were prepared using a loading buffer after a BCA protein assay. The samples were incubated in a metal bath at 100° C. for 10 min. The samples were electrophoretically separated from proteins on a 4-20% precast gel (SDS-PAGE gel), transferred to a PVDF membrane, blocked with 5% NFDM/TBST for 1 h at room temperature, co-incubated overnight at 4° C. with the primary antibody, and co-incubated for 2 h at room temperature with the secondary antibody on the next day. The signals were detected on the […]™ imaging system.
Background: A western blot detects proteins with antibodies after separation by electrophoresis.

The subject of experiment [4] is NCI-H929 cells. The experiment is described as follows: Antiproliferative effect alone and in combination with dexamethasone against NCI-H929 cells. The settings on record: for pIC50: Homo sapiens, NCI-H929, 72 h, 72 h. How it is done:
(§1) MOLM-13 cells in the logarithmic growth phase were diluted in a medium RPMI+[…], and NCI-H929 cells were diluted in a medium RPMI+10% FBS. The cells were plated at 4,000 cells/well in 96-well whole black plates (WHB) with 50 μL/well. After plating, the plates were incubated in an incubator at 5% CO2 and 37° C. for 24 h before the compounds were added. The compounds were prepared into a 10 mM stock solution in DMSO and diluted in a culture medium to the desired concentrations (a final DMSO concentration of 0.2%). 50 μL of the compound dilutions at final concentrations of 10,000, 3,333.33, 1,111.11, 370.37, 123.46, 41.15, 13.72, 4.57, 1.52, and 0 nM were added to the 96-well plates containing the cells, that is, each compound was serially diluted to 10 concentrations in duplicate. The plates were incubated at 5% CO2 and 37° C. for 72 h. When pharmaceutical partners were used, the concentrations of azacitidine and dexamethasone were kept at 200 nM and 500 nM respectively, and the compounds were serially three-fold diluted from 10,000 nM. After the incubation was complete, the plates were equilibrated at room temperature for 30 min. CellTiter-Glo® Reagent (Promega G7573) was added at 100 μL/well. The plates were shaken for 12 min on a microplate shaker. The luminescence value was measured at room temperature by the GloMax navigator (Promega GM2010). The IC50 values were calculated using the GraphPad Prism 7 software with the 0 nM control group as 0% inhibition.

In experiment [5] the test system is MOLM-13 cells. Description: Antiproliferative effect alone and in combination with azacitidine against MOLM-13 cells. The settings on record: MOLM-13 cells; for pIC50: Homo sapiens, MOLM-13, 72 h, 72 h. As to the method: as §1

As for `O=C1CCC(N2Cc3c(ccc(CNC(=O)c4ccc(Cl)cc4)c3F)C2=O)C(=O)N1` (stereo not shown) [FDAB-48], the pIC50 was 7.00 to 8.00 in experiment [1] (MV4-11, 72 h, read-out: Antiproliferative activity IC50); 7.97 in experiment [1] (MV4-11, read-out: IC50 against MV-4-11 cell proliferation); 7.85 in experiment [4] (compound alone); 8.61 in experiment [4] (in combination with 500 nM dexamethasone). The inhibition at 1 µM in experiment [2] (NB-4, 6 h) is greater than 80%. Besides, the “degradation of GSPT1 protein” value in experiment [2] (co-incubated for 6 h with NB-4 cells) is listed as 88%. Also, the CK1α degradation entry in experiment [3] (10 nM), in experiment [3] (100 nM) and in experiment [3] (1000 nM) was “D (D denotes a percentage of degradation less than 25%)” throughout. Besides, the “increase of antiproliferative activity IC50 when combined with 500 nM dexamethasone” value in experiment [4] is on record as “about 6 folds”.

Regarding `Cc1ccc(C(=O)NCc2ccc3c(c2F)CN(C2CCC(=O)NC2=O)C3=O)c(F)c1` (stereo not shown) [FDAB-121], the pIC50 in experiment [1] (MV4-11, MV-4-11 cells, 72 h, read-out: Antiproliferative activity IC50) is 8.00 to 9.00; in experiment [5] (compound alone) it was 6.61; in experiment [5] (in combination with 200 nM azacitidine) it was 8.01. For the same compound, the inhibition at 1 µM in experiment [2] (NB-4 cells, compound 1 μM, 6 h) was greater than 80%. For the same compound, the CK1α degradation result in experiment [3] (10 nM) was “D (D denotes a percentage of degradation less than 25%)”; in experiment [3] (100 nM), “D (D denotes a percentage of degradation less than 25%)”; in experiment [3] (1000 nM), “C (C denotes a percentage of degradation less than 500% but not less than 250%)”. The “activity relative to CC-90009, alone or in combination with azacitidine” value in experiment [5] was “about 5 folds”. In addition, the “increase of antiproliferative activity IC50 when combined with 200 nM azacitidine” value in experiment [5] is reported as “about 25 folds”.
